Our source for the IC50, Activity and inhibition values is ChEMBL document CHEMBL6092212, “Discovery of novel substituted (Z)-N'-hydroxy-3-(3-phenylureido)benzimidamide derivatives as multifunctional molecules targeting pathological hallmarks of Alzheimer's disease” (Eur J Med Chem, 2024).

The target of assay [1] is T1, Acetylcholinesterase (Homo sapiens, UniProt P22303). Nature of the assay: Inhibition of human AChE using ATCI as substrate preincubated for 30 mins followed by substrate addition measured after 30 mins by Ellman's method. On the technique in general: Ellman's reagent forms a yellow product with free thiols.
T1 sequence (P22303 whole entry): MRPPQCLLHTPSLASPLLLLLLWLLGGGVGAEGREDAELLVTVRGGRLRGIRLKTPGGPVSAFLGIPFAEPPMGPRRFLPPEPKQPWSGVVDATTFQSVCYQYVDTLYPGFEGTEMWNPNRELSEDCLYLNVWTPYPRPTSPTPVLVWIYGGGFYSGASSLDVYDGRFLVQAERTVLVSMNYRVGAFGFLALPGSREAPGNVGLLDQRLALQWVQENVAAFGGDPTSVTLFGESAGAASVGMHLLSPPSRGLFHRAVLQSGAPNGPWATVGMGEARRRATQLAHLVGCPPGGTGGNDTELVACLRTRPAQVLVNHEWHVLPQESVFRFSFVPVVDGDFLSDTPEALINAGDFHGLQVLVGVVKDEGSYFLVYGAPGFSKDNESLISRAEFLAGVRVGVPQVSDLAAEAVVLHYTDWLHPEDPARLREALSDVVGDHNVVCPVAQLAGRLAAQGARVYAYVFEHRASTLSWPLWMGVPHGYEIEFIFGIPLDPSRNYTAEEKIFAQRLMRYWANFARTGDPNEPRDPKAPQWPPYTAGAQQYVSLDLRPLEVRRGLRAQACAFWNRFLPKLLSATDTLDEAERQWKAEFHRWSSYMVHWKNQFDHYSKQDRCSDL
A further assay addresses Cholinesterase (Equus caballus, UniProt P81908). The assay is described as follows: Inhibition of equine BChE using BTCI as substrate preincubated for 30 mins followed by substrate addition measured after 30 mins by Ellman's method.
A short description of assay [2]: Antioxidant activity assessed as DPPH radical scavenging activity at 20 to 200 uM incubated for 30 mins by absorbance based analysis relative to control. The assay is classed as functional. The settings on record: dose 20-200 µM. (DPPH is a stable violet radical that fades when it is reduced.)
Assay [3] is described as follows: Antioxidant activity assessed as inhibition of DPPH radical scavenging activity incubated for 30 mins by absorbance based analysis. The assay is classed as functional.
In assay [4] the target is T1, Acetylcholinesterase. The assay is described as follows: Inhibition of human AChE using ATCI as substrate preincubated for 30 mins followed by substrate addition measured after 30 mins by Ellman's method relative to control. Also on record: concentration or dose not given beside the values. The settings on record: time 60.0 min.
In assay [5] the target is Cholinesterase (Equus caballus) (UniProt P81908). Nature of the assay: Inhibition of equine BChE using BTCI as substrate preincubated for 30 mins followed by substrate addition measured after 30 mins by Ellman's method relative to control.
Cholinesterase (Equus caballus), sequence (P81908 whole entry): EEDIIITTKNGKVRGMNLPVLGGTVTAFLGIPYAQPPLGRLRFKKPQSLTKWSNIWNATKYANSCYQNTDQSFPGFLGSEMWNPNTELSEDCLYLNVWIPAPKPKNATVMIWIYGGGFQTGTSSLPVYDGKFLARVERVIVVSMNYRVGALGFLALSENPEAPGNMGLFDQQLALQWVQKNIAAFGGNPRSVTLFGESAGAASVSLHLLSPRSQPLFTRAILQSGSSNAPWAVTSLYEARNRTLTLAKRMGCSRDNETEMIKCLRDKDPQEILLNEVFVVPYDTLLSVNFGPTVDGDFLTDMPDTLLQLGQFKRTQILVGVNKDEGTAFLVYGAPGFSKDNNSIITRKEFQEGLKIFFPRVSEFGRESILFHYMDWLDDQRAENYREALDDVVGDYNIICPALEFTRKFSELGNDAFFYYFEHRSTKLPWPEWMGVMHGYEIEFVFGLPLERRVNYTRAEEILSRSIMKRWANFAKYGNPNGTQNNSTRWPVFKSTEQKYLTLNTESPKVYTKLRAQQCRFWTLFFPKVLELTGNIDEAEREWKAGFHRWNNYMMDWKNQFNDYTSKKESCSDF

Cholinesterase, sequence (P81908 whole entry): as above

As to `NC(=NO)c1cccc(NC(=O)Nc2ccc(Br)cc2)c1`, the half-inhibitory concentration (IC50) (in general, the concentration at which inhibition is half-maximal) against Acetylcholinesterase [1] came to 16.8 µM; against Cholinesterase it was 14.6 µM.
The matching figures for `NC(=NO)c1cccc(NC(=O)Nc2ccc(F)cc2)c1`: 7.51 µM and 17.7 µM.
At Cholinesterase, `NC(=NO)c1cccc(NC(=O)Nc2ccccc2Cl)c1` registered a 50% inhibitory concentration (IC50) of 15.4 µM.
Turning to `N/C(=N\O)c1cccc(NC(=O)Nc2cccc(C(F)(F)F)c2)c1`, the half-maximal inhibitory concentration (IC50) at Acetylcholinesterase [1] was 17 µM; at Cholinesterase it was 10.5 µM.
As to `O=c1c(O)c(-c2ccc(O)c(O)c2)oc2cc(O)cc(O)c12` [QUERCETIN], in assay [2], the Activity came to 79.4%. Further, the IC50 in assay [3] was found to be 3.23 µM.
Regarding `N/C(=N\O)c1ccc(NC(=O)Nc2cccc(F)c2)cc1`, the IC50 against Acetylcholinesterase [1] was 3.04 µM; at Cholinesterase, 8.08 µM.
For `Cc1ccccc1NC(=O)Nc1ccc(/C(N)=N/O)cc1` the same measures were 8.57 µM and 16.9 µM.
For `NC(=NO)c1ccc(NC(=O)Nc2cccc(Br)c2)cc1` the same measures were 6.41 µM and 7.62 µM.
In the case of `N/C(=N\O)c1cccc(NC(=O)Nc2ccccc2)c1`, the inhibition (in general, the relative decrease from the control value, in per cent) on Acetylcholinesterase [4] was determined as 47.9%. At Cholinesterase, the IC50 was determined as 17.5 µM.
Consider `N/C(=N\O)c1cccc(NC(=O)NCCc2c[nH]c3ccccc23)c1`, for which the IC50 against Acetylcholinesterase [1] came to 1.54 µM; on Cholinesterase it was 3.91 µM.
For `COc1ccc(NC(=O)Nc2cccc(/C(N)=N/O)c2)cc1` the same measures were 16.3 µM and 17.9 µM.
The matching figures for `N/C(=N\O)c1cccc(NC(=O)Nc2ccccc2F)c1`: 18.6 µM and 11.3 µM.
For `N/C(=N\O)c1ccc(NC(=O)Nc2ccc(Cl)cc2)cc1` the same measures were 7.65 µM and 14.6 µM.
`Cc1ccc(NC(=O)Nc2cccc(/C(N)=N/O)c2)cc1` came in with an inhibition on Acetylcholinesterase [4] of 39.9%. The half-inhibitory concentration (IC50) at Cholinesterase turned out to be 17.9 µM.
On to `N/C(=N\O)c1ccc(NC(=O)Nc2ccc3[nH]ccc3c2)cc1`, for which the results for the IC50 against Acetylcholinesterase [1] and on Cholinesterase were 7.47 µM and 12.7 µM, respectively.
For `COc1cccc(NC(=O)Nc2ccc(/C(N)=N/O)cc2)c1` the same measures were 9.15 µM and 18.2 µM.
`N/C(=N\O)c1cccc(NC(=O)Nc2ccc3[nH]ccc3c2)c1`: the values for the half-maximal inhibitory concentration (IC50) (at Acetylcholinesterase [1]; at Cholinesterase; in assay [3]) were 6.24 µM, 15.9 µM and 22.9 µM, respectively. Also, in assay [2], the Activity stood at 34.2%.
On Acetylcholinesterase [4], `COc1ccccc1NC(=O)Nc1cccc(/C(N)=N/O)c1` showed an inhibition of 49%. Also, the IC50 at Cholinesterase worked out at 15.2 µM.
`Cc1ccccc1NC(=O)Nc1cccc(/C(N)=N/O)c1`: the IC50 was found to be 17.4 µM on Acetylcholinesterase [1] and 15.4 µM against Cholinesterase.
The matching figures for `N/C(=N\O)c1cccc(NC(=O)NCCc2c[nH]c3ccc(Cl)cc23)c1`: 1.16 µM and 3.1 µM.
Consider `COc1cccc(NC(=O)Nc2cccc(/C(N)=N/O)c2)c1`, for which the IC50 against Acetylcholinesterase [1] came out at 12.9 µM; against Cholinesterase, 12.8 µM.
With `NC(=NO)c1cccc(NC(=O)Nc2cccc(Cl)c2)c1`, the IC50 against Acetylcholinesterase [1] came out at 17.4 µM; against Cholinesterase, 18.7 µM.
`N/C(=N\O)c1cccc(NC(=O)Nc2ccccc2Br)c1`: the inhibition on Acetylcholinesterase [4] came to 47.7%; in assay [5], 49.2%.
Consider `N/C(=N\O)c1cccc(NC(=O)Nc2cccc(Br)c2)c1`, for which the results for the half-inhibitory concentration (IC50) at Acetylcholinesterase [1] and at Cholinesterase were 14.5 µM and 8.63 µM, respectively.
The matching figures for `NC(=NO)c1cccc(NC(=O)Nc2ccccc2C(F)(F)F)c1`: 18.3 µM and 17.1 µM.
Consider `N/C(=N\O)c1cccc(NC(=O)Nc2ccc3ncccc3c2)c1`, for which the Activity in assay [2] was 42.9%. Besides, in assay [3], the concentration for half-maximal inhibition (IC50) is 18.4 µM.
As to `NC(=NO)c1cccc(NC(=O)Nc2ccc([N+](=O)[O-])cc2)c1`, the IC50 at Acetylcholinesterase [1] was found to be 16.3 µM; against Cholinesterase, 17.6 µM.
For `N/C(=N\O)c1ccc(NC(=O)Nc2ccc3ncccc3c2)cc1` the same measures were 6.94 µM and 13.2 µM.
The matching figures for `N/C(=N\O)c1cccc(NC(=O)Nc2ccc(O)cc2)c1`: 16.3 µM and 14.4 µM.
Take `Cc1cccc(NC(=O)Nc2cccc(/C(N)=N/O)c2)c1`: the inhibition against Acetylcholinesterase [4] was found to be 42.5%. Further, it took 10.6 µM to reach half-maximal inhibition against Cholinesterase (IC50).
With `NC(=NO)c1cccc(NC(=O)Nc2ccc3ncccc3c2)c1`, the 50% inhibitory concentration (IC50) against Acetylcholinesterase [1] turned out to be 5.68 µM; at Cholinesterase it was 15.4 µM.
At Acetylcholinesterase [1], `N/C(=N\O)c1cccc(NC(=O)Nc2ccc(C(F)(F)F)cc2)c1` displayed an IC50 of 12.2 µM. For the same compound, the inhibition in assay [5] worked out at 47%.
Regarding `N/C(=N\O)c1cccc(NC(=O)Nc2ccc(Cl)cc2)c1`, the half-inhibitory concentration (IC50) worked out at 14.1 µM against Acetylcholinesterase [1] and 16.5 µM against Cholinesterase.
Turning to `NC(=NO)c1cccc(NC(=O)Nc2cccc([N+](=O)[O-])c2)c1`, the results for the IC50 against Acetylcholinesterase [1] and on Cholinesterase were 12.1 µM and 16.3 µM, respectively.
The matching figures for `NC(=NO)c1cccc(NC(=O)Nc2cccc(O)c2)c1`: 14.5 µM and 15.5 µM.
With `N/C(=N\O)c1cccc(NC(=O)Nc2ccccc2Cl)c1`, at Acetylcholinesterase [4], the inhibition came out at 49.2%.
